Measurements published in patent US9983218B2, “Indole and indoline derivatives and methods of use thereof” (AbbVie Inc., priority 2008, dated 2018).
Where two headings read alike, the source gives them in different places.

Tested on: SK-N-SH human neuroblastoma cells
Assay: Serum deprivation/JC-1 mitochondrial membrane potential (MMP) assay
Assay type: cell-based
Details: Homo sapiens; for Emax: read-out: JC-1 max %
Experimental: SK-N-SH human neuroblastoma cells obtained from American Type Culture Collection (Rockville, Md.) were maintained in the log phase of growth in Minimal Essential Media (MEM), 10% heat inactivated fetal calf serum and 100 units/mL antibiotic-antimycotic (AA). Cells were cultured and maintained in a humidified incubator at 37° C. under 5% CO2 and 95% air. Cells were trypsinized (0.25%) and subcultured every 3 days and used from 15-18 passages. All cell culture supplies were obtained from Invitrogen (Carlsbad, Calif.).
SK-N-SH cells were plated 2-3 days in advance at a concentration of 50,000 cells/well onto collagen coated black-walled 96 well plates (Becton-Dickinson, Bedford, Mass.) in a total volume of 200 μL. On day of experimental treatment, the media containing serum was aspirated from each well and rinsed once with MEM/1% AA without serum. The cells then were incubated overnight in 100 μL of MEM/1% AA (no serum) with and without dimebolin or novel chemical entities overnight for ˜18 hours. The following day, JC-1 dye (5,5′,6,6′-tetrachloro-1,1′,3,3′-tetraethylbenzimidazolcarbocyanide) was diluted 1:10 into MEM media according to the JC-1 Mitochondrial Membrane Potential Assay Kit: (Cayman Chemical Company, Ann Arbor, Mich.) and then 10 μL of the JC-1 dye solution was added to each well. The plates were centrifuged for 5 minutes at 400×g at room temperature followed by 35 minute incubation at 37° C. The plates were washed twice with 200[…] μL of provided Assay Buffer followed an addition of 100 μL of Assay Buffer to each well. The plates were read with an excitation and emission of 560 nm and 595 nM for red fluorescence and with an excitation and emission of 485 nm and 535 nM for green fluorescence to determine the final JC-1 value taking the red to green fluorescence ratio. This assay is based on change in mitochondrial membrane potential (MMP) using this lipophilic cationic dye, JC-1, by monitoring the changes in the ratio of red to green fluorescence as the MMP depolarizes. This change in MMP reflects the health of the cell with healthy, viable cells have a high JC-1 ratio and high MMP whereas apoptotic, unhealthy cells have a low JC-1 ratio or low MMP.
For the ability of compounds to reverse the stress due to serum deprivation and increase the JC-1 ratio, the percent maximal intensity in JC-1 ratio was normalized to that induced by the peak value for 10 μM dimebolin and plotted against the compound concentration to calculate EC50 values and to control for plate-to-plate variability. Concentration-response data were analyzed using GraphPad Prism (San Diego, Calif.); the EC50 values were derived from a single curve fit to the mean data of n=2-3, in duplicates.
All compounds were dissolved in dimethyl sulfoxide at 10 mM stock solutions and tested at a concentration that the dimethyl sulfoxide levels never exceeded 1%.

[1] = SK-N-SH, percent maximal intensity in JC-1 ratio normalized to 10 μM dimebolin
[2] = SK-N-SH cells, serum deprivation ~18 hours, JC-1 ratio normalized to peak value for 10 μM dimebolin, single curve fit to mean data of n=2-3, read-out: EC50

Structure (SMILES) | Emax [1] | EC50 [2] | EC50 (SK-N-SH, 18 h) | Emax (SK-N-SH)
NC(=O)c1ccc(-n2c3c(c4ccccc42)CN2CCC3CC2)nc1 [Example 266, 6-(1,3,4,5-tetrahydro-6H-2,5-ethanoazepino[4,3-b]indol-6-yl)nicotinamide] | 127% | 10.7 µM | – | –
Cc1ccc2cc(-n3c4c(c5ccccc53)CN3CCC4CC3)ccc2n1 [Example 232, 6-(2-methylquinolin-6-yl)-3,4,5,6-tetrahydro-1H-2,5-ethanoazepino[4,3-b]indole] | 220% | 0.81 µM | – | –
Fc1ccc2c(c1)c1c(n2Cc2ccc(N3CCCC3)nc2)C2CCN(CC2)C1 [Example 244, 9-fluoro-6-{[6-(pyrrolidin-1-yl)pyridin-3-yl]methyl}-3,4,5,6-tetrahydro-1H-2,5-ethanoazepino[4,3-b]indole] | 226% | 5.65 µM | – | –
Cc1ccc2c(c1)c1c(n2CCOc2ccc(F)cc2)CC2CCC1N2C (stereo not shown) [Example 67, 5-[2-(4-fluorophenoxy)ethyl]-2,11-dimethyl-5,6,7,8,9,10-hexahydro-7,10-epiminocyclohepta[b]indole] | 132% | 6.49 µM | – | –
Cc1ccc2c(c1)c1c(n2-c2ccc3ccncc3c2)C2CCN(CC2)C1 [Example 216, 6-isoquinolin-7-yl-9-methyl-3,4,5,6-tetrahydro-1H-2,5-ethanoazepino[4,3-b]indole] | 284% | 4.2 µM | – | –
O=c1ccccn1-c1cccc(-n2c3c(c4ccccc42)CN2CCC3CC2)n1 [Example 273, 6′-(1,3,4,5-tetrahydro-6H-2,5-ethanoazepino[4,3-b]indol-6-yl)-2H-1,2′-bipyridin-2-one] | 190% | 7.48 µM | – | –
Cc1ccc2c(c1)c1c(n2CCc2ccccc2C)C2CC3CC1CN(C3)C2 (stereo not shown) [Example 197, 11-methyl-8-[2-(2-methylphenyl)ethyl]-1,4,5,6,7,8-hexahydro-2H-1,5:3,7-dimethanoazonino[5,4-b]indole] | 173% | 5.63 µM | – | –
Cc1ccc(CCn2c3c(c4cc(S(C)(=O)=O)ccc42)CN2CCC3CC2)cn1 [Example 182, 6-[2-(6-methylpyridin-3-yl)ethyl]-9-(methylsulfonyl)-3,4,5,6-tetrahydro-1H-2,5-ethanoazepino[4,3-b]indole] | 60% | 9.28 µM | – | –
Fc1ccc2c(c1)c1c(n2Cc2cccnc2)C2CCN(CC2)C1 [Example 185, 9-fluoro-6-(pyridin-3-ylmethyl)-3,4,5,6-tetrahydro-1H-2,5-ethanoazepino[4,3-b]indole] | 184% | 8.58 µM | – | –
Cc1ccc(CCn2c3c(c4cc(-c5ccc(Cl)cc5)ccc42)C2CCC(C3)N2C)cn1 (stereo not shown) [Example 106, 2-(4-chlorophenyl)-11-methyl-5-[2-(6-methylpyridin-3-yl)ethyl]-5,6,7,8,9,10-hexahydro-7,10-epiminocyclohepta[b]indole] | 238% | 5.73 µM | – | –
Fc1ccc2c(c1)c1c(n2Cc2ccnc(F)c2)C2CCN(CC2)C1 [Example 191, 9-fluoro-6-[(2-fluoropyridin-4-yl)methyl]-3,4,5,6-tetrahydro-1H-2,5-ethanoazepino[4,3-b]indole] | 112% | 7.04 µM | – | –
Cc1ccc2c(c1)c1c(n2CCc2ccc(Cl)cc2)C2CCCN(C1)C2 (stereo not shown) [Example 204, 7-[2-(4-chlorophenyl)ethyl]-10-methyl-1,3,4,5,6,7-hexahydro-2,6-methanoazocino[4,3-b]indole] | 182% | 3.23 µM | – | –
COc1ccc2c(c1)c1c(n2CCc2ccc(Cl)cc2)C[C@@H]2CC[C@H]1N2C (single isomer, unassigned) [Example 93] | 186% | 4.81 µM | – | –
CC(C)N(C)c1ccc(Cn2c3c(c4cc(F)ccc42)CN2CCC3CC2)cn1 [Example 242, 5-[(9-fluoro-1,3,4,5-tetrahydro-6H-2,5-ethanoazepino[4,3-b]indol-6-yl)methyl]-N-isopropyl-N-methylpyridin-2-amine] | 169% | 8.12 µM | – | –
Cc1ccc2c(c1)[C@@H]1[C@H]3CC[C@@H](C[C@@H]1N2CCc1ccc(C)nc1)N3C [Example 113, (5aS,7S,10R,10aR)-2,11-dimethyl-5-[2-(6-methylpyridin-3-yl)ethyl]-5,5a,6,7,8,9,10,10a-octahydro-7,10-epiminocyclohepta[b]indole] | 353% | 2.99 µM | – | –
Cc1ccc(CCn2c3c(c4cc(C(C)C)ccc42)C2CCC(C3)N2C)cn1 (stereo not shown) [Example 99, 2-isopropyl-11-methyl-5-[2-(6-methylpyridin-3-yl)ethyl]-5,6,7,8,9,10-hexahydro-7,10-epiminocyclohepta[b]indole] | 138% | 3.07 µM | – | –
Fc1ccc2c(c1)c1c(n2Cc2cn3nc(Cl)ccc3n2)C2CCN(CC2)C1 [Example 253, 6-[(6-chloroimidazo[1,2-b]pyridazin-2-yl)methyl]-9-fluoro-3,4,5,6-tetrahydro-1H-2,5-ethanoazepino[4,3-b]indole] | 185% | 4.4 µM | – | –
Cc1ccc2c(c1)c1c(n2CCc2ccc(C)nc2)C[C@@H]2CCC[C@H]1N2 (single isomer, unassigned) [Example 121] | 129% | 3.63 µM | – | –
CC1CCC(CCn2c3c(c4cc(OC(F)(F)F)ccc42)CN2CCC3CC2)CN1 (stereo not shown) [Example 179, 6-[2-(6-methylpiperidin-3-yl)ethyl]-9-(trifluoromethoxy)-3,4,5,6-tetrahydro-1H-2,5-ethanoazepino[4,3-b]indole] | 116% | 5.69 µM | – | –
Cc1ccc2c(c1)c1c(n2CCc2cccc(C(F)(F)F)c2)C2CCN(CC2)C1 [Example 152, 9-methyl-6-{2-[3-(trifluoromethyl)phenyl]ethyl}-3,4,5,6-tetrahydro-1H-2,5-ethanoazepino[4,3-b]indole] | 156% | 3.86 µM | – | –
Oc1ncnc2ccc(-n3c4c(c5cc(F)ccc53)CN3CCC4CC3)cc12 [Example 259, 6-(9-fluoro-1,3,4,5-tetrahydro-6H-2,5-ethanoazepino[4,3-b]indol-6-yl)quinazolin-4-ol] | 126% | 3.2 µM | – | –
CN1C2CCC1c1c(n(CCc3ccc(Cl)cc3)c3ccc(OC(F)(F)F)cc13)C2 (stereo not shown) [Example 97, 5-[2-(4-chlorophenyl)ethyl]-11-methyl-2-(trifluoromethoxy)-5,6,7,8,9,10-hexahydro-7,10-epiminocyclohepta[b]indole] | – | – | 5.13 µM | 164%
CN(CC1OCCO1)c1ccc(Cn2c3c(c4cc(F)ccc42)CN2CCC3CC2)cn1 [Example 243, N-(1,3-dioxolan-2-ylmethyl)-5-[(9-fluoro-1,3,4,5-tetrahydro-6H-2,5-ethanoazepino[4,3-b]indol-6-yl)methyl]-N-methylpyridin-2-amine] | 169% | 8.36 µM | – | –
Cc1ccc2c(c1)c1c(n2CCc2ccc(Cl)cc2)C2CCN(CC2)C1 [Example 151, 6-[2-(4-chlorophenyl)ethyl]-9-methyl-3,4,5,6-tetrahydro-1H-2,5-ethanoazepino[4,3-b]indole] | 121% | 5.38 µM | – | –
c1ccc2nc(-n3c4c(c5ccccc53)CN3CCC4CC3)ccc2c1 [Example 235, 6-quinolin-2-yl-3,4,5,6-tetrahydro-1H-2,5-ethanoazepino[4,3-b]indole] | 252% | 3.96 µM | – | –
Cc1ccc(CCn2c3c(c4cc(OC(F)(F)F)ccc42)CN2CCC3CC2)cn1 [Example 178, 6-[2-(6-methylpyridin-3-yl)ethyl]-9-(trifluoromethoxy)-3,4,5,6-tetrahydro-1H-2,5-ethanoazepino[4,3-b]indole] | 192% | 4.17 µM | – | –
